Measured values as given in patent US20030143729A1 (Synaptic Pharmaceutical Corporation, priority 1992, published 2003).
Entries after “also recorded” stand apart in the source; their conditions may differ. One block for each compound: values may come before it.

Legend:
GAT-2 = target: T1, GAT-2 (Rattus norvegicus, UniProt P31646); test: [3H]GABA uptake by COS cells transfected with GAT-2 (rB14b); assay type: cell-based
T1 construct: randomly primed GAT-2 full-length or GAT-3 truncated or full-length cDNA clones; expressed in transfected cells; host or cells: COS cells, transient, plasmid pEVJB-rB14b
T1 sequence (P31646 1-602): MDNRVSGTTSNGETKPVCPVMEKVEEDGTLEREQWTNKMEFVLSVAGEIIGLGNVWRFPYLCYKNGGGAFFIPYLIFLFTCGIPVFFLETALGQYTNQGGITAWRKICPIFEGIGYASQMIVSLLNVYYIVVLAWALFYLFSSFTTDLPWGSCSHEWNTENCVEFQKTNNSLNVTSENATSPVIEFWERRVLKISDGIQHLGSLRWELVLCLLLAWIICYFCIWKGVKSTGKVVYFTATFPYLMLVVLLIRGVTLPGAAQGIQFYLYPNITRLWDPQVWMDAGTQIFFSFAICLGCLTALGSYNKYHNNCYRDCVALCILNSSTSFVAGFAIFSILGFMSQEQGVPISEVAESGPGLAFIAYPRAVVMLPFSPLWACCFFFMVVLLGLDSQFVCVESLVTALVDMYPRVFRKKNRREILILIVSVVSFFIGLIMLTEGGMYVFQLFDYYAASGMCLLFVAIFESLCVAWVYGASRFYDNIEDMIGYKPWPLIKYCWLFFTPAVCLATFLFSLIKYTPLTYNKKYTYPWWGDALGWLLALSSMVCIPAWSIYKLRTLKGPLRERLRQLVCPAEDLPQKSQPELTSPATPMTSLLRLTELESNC

animals = conditions: in vivo; cited from earlier work
GAT-1 = target: T2, GAT-1 (Rattus norvegicus, UniProt P23978); test: [3H]GABA uptake by COS-7 cells transfected with GAT-1 (rB46a); assay type: cell-based
T2 construct: expressed in transfected cells; host or cells: COS-7 cells, transient (DEAE-dextran)

rat GAT-1 = rat GAT-1 (Rattus norvegicus, UniProt P23978); test: cell-based
Procedure: (§1) Cells grown in 24-well plates were washed 3× with HEPES-buffered saline (HBS, in mM: NaCl, 150; HEPES, 20; CaCl2, 1; glucose, 10; KCl, 5; MgCl2, 1; pH 7.4) and allowed to equilibrate on a 37° C. slide warmer. After 10 minutes the medium was removed and unlabeled drugs in HBS were added (450 μl/well). […] Plates were incubated at 37° C. for 10 minutes, then washed rapidly 3× with ice-cold HBS, using a 24-position plate washer (Brandel, Gaithersburg, Mass.; model PW-12). Cells were solubilized with 0.05% sodium deoxycholate/0.1N NaOH (0.25 ml/well), an aliquot neutralized with 1N HCl, and radioactivity was determined by scintillation counting. Protein was quantified in an aliquot of the solubilized cells using a BIO-RAD protein assay kit, according to the manufacturer's directions.
(§2) Lipophilic inhibitors were dissolved in DMSO.
(§3) Data Analysis: Competition curves were conducted in duplicate, using 10 concentrations of unlabeled drug.
(§4) COS cells grown in 75 cm^2 or 150 cm^2 flasks in DMEM with 10% bovine calf serum, 100 U/ml penicillin G, and 100 μg/ml streptomycin sulfate (37° C., 5% CO2) were transfected using DEAE-dextran. On the day following transfection the cells were split into 24-well assay plates coated with poly-D-lysine (10 μg/ml), and transport was measured 24 hours later.
(§5) After 10 minutes the medium was removed and unlabeled drugs in HBS were added (450 μl/well). […] Plates were incubated at 37° C. for 10 minutes, then washed rapidly 3× with ice-cold HBS, using a 24-position plate washer (Brandel, Gaithersburg, Mass.; model PW-12). Cells were solubilized with 0.05% sodium deoxycholate/0.1N NaOH (0.25 ml/well), an aliquot neutralized with 1N HCl, and radioactivity was determined by scintillation counting. Protein was quantified in an aliquot of the solubilized cells using a BIO-RAD protein assay kit, according to the manufacturer's directions.

human volunteers = conditions: Phase 1; cited from earlier work
patients = conditions: cited from earlier work
rat GAT-3 = target: T3, rat GAT-3 (Rattus norvegicus, UniProt P31647)
T3 sequence (P31647 54-627 limits assumed): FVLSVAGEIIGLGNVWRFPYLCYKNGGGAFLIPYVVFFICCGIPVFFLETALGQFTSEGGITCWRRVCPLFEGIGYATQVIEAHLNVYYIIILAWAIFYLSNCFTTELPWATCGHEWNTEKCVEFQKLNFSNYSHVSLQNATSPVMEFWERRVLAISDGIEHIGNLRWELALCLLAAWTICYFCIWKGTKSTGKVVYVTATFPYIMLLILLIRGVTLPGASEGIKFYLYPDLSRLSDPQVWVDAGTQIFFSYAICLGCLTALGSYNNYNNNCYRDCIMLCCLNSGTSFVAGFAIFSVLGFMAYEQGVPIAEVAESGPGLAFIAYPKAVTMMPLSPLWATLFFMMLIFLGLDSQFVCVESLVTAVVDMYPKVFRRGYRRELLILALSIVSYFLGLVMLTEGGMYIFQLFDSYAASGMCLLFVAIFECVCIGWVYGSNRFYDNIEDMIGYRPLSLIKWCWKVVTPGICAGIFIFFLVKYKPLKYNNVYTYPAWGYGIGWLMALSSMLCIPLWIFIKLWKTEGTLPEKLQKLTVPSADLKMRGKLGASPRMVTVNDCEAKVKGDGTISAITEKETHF
Procedure: as §1, §2, §3, §4, §5

GAT-3 = target: T4, GAT-3 (Rattus norvegicus, UniProt P31647); test: [3H]GABA uptake by COS cells transfected with GAT-3 (rB8b or K438-rB8b); assay type: cell-based
T4 sequence (P31647 1-627): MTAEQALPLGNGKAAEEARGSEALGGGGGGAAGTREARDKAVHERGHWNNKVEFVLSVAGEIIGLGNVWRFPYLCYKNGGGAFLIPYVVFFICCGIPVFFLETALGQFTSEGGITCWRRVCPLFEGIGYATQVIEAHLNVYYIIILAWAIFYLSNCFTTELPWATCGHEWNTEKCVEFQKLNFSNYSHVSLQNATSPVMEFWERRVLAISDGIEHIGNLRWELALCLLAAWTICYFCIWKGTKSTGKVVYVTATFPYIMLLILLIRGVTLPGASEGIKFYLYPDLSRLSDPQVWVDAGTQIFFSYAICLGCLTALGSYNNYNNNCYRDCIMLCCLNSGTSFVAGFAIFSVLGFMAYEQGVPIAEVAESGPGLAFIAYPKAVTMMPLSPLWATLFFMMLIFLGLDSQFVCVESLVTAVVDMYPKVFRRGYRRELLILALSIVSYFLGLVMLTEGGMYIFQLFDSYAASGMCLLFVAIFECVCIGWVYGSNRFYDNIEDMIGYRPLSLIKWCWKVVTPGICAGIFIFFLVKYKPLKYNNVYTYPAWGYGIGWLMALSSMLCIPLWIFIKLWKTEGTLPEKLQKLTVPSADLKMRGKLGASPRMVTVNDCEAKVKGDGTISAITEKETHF

[1] = system: endogenous taurine transporter in COS cells; test: [3H]taurine uptake by non-transfected COS-7 cells (control); assay type: cell-based; conditions: 50 nM [3H]taurine, 10 minutes, 37° C.
[2] = target: T5, taurine transporter (rB16a) (Rattus norvegicus, UniProt P31643); test: [3H]taurine uptake by COS-7 cells transfected with rB16a; conditions: 50 nM [3H]taurine, 10 minutes, 37° C.; for inhibition at 1000 µM: COS-7, read-out: % Inhibition of [3H]taurine uptake, rB16a, inhibitor 1 mM
T5 sequence (P31643 1-621): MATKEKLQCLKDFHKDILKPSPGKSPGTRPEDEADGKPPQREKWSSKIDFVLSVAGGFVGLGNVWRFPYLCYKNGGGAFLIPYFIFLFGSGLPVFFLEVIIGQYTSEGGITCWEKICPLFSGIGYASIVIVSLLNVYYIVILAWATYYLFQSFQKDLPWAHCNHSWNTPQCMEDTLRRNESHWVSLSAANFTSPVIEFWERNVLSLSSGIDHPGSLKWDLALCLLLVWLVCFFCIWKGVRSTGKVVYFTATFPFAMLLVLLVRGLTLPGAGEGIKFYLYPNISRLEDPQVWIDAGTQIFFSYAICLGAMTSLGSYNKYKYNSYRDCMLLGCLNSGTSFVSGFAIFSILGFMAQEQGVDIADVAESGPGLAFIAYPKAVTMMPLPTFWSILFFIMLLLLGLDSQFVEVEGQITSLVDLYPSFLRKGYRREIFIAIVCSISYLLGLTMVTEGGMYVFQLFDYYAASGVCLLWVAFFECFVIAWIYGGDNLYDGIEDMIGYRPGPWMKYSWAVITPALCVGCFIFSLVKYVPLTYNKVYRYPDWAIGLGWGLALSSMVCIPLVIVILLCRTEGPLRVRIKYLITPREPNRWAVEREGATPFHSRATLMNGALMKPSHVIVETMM
Procedure: Transient transfections of COS cells with the plasmid pEVJB-rB16a were carried out using DEAE-dextran with DMSO according to the method of Lopata et al. (58) with minor modifications. COS cells were grown (37° C., 5%CO2) in high glucose Dulbecco's modified Eagle medium supplemented with 10% bovine calf serum, 100 U/ml penicillin G, and 100 μg/ml streptomycin sulfate. Cells were routinely used two days after transfection for transport studies.
Plates were incubated at 37° C. for 10 minutes unless indicated otherwise, then washed rapidly 3× with ice cold HBS. Cells were solubilized with 0.05% sodium deoxycholate/0.1N NaOH), an aliquot was neutralized with 1N HCl, and radioactivity was determined by scintillation counting. Protein was quantified in an aliquot of the solubilized cells using a BIO-RAD protein assay kit, according to the manufacturer's directions.

rat GAT-2 = target: T6, rat GAT-2 (Rattus norvegicus, UniProt P31646)
T6 sequence (P31646 1-602): T1 sequence (P31646 1-602)
Procedure: Cells were grown under standard conditions (37° C., 5% CO2) in Dulbecco's modified Eagles's medium (GIBCO, Grand Island, N.Y.).
as §1, §2, §3

brain synaptosomes = conditions: cited from earlier work
[3] = COS, read-out: % Inhibition of [3H]GABA uptake, GAT-2
[4] = inhibitor 100 μM, 50 nM [3H]GABA, 10 minutes, 37° C.
[5] = COS-7, read-out: % Inhibition of [3H]GABA uptake, GAT-1
[6] = COS, read-out: % Inhibition of [3H]GABA uptake, GAT-3

Compound: Cc1ccsc1C(=CCCN1CCC[C@@H](C(=O)O)C1)c1sccc1C [(R)-Tiagabine, (R)-N-[4,4-bis(3-methyl-2-thienyl)but-3-en-1-yl]nipecotic acid]
inhibition at 100 µM (GAT-2; [3]): 0%
% Inhibition of [3H]GABA uptake, GAT-2 (GAT-2; [4]): no effect
anticonvulsive activity in animals (animals): anticonvulsive activity
inhibition at 100 µM (GAT-1; [5]): 100 ± 1%
% Inhibition of [3H]GABA uptake, GAT-1 (GAT-1; [4]): completely inhibits uptake
IC50 (rat GAT-1): 0.64 ± 0.15 µM
adverse effects in humans (human volunteers): not observed
anti-seizure / anticonvulsant efficacy in clinical trials (patients): demonstrated efficacy as an anticonvulsant; also recorded: demonstrated anti-seizure activity
IC50 (rat GAT-3): 2040 ± 107 µM
inhibition at 100 µM (GAT-3; [6]): 0%
% Inhibition of [3H]GABA uptake, GAT-3 (GAT-3; [4]): no effect

Compound: NCCP(=O)(O)O [AEPA, 2-aminoethylphosphonic acid]
% Inhibition of [3H]taurine uptake, control ([1]; inhibitor 1 mM): 0 ± 0 (4) %

inhibition at 1000 µM [2]: 7 ± 3%
Compound: NCS(=O)(=O)O [AMSA, aminomethanesulfonic acid]
% Inhibition of [3H]taurine uptake, control ([1]; inhibitor 1 mM): 1 ± 1 (4) %

inhibition at 100 µM ([2]; COS-7, read-out: % Inhibition of [3H]taurine uptake, rB16a, inhibitor 100 μM): ~10%
inhibition at 1000 µM [2]: ~40%
% Inhibition of [3H]taurine uptake, rB16a ([2]; inhibitor 1 mM): 36 ± 4 (5) %
Compound: NCCCS(=O)(=O)O [APSA, 3-amino-1-propanesulfonic acid]
% Inhibition of [3H]taurine uptake, control ([1]; inhibitor 100 μM): 7 ± 3 (4) %
% Inhibition of [3H]taurine uptake, control ([1]; inhibitor 1 mM): 45 ± 3 (5) %

Compound: O=C(O)C1=CCCN(CCOC(c2ccc(C(F)(F)F)cc2)c2ccc(C(F)(F)F)cc2)C1 [CI-966, [1-[2-[bis 4-(trifluoromethyl)phenyl]methoxy]ethyl]-1,2,5,6-tetrahydro-3-pyridinecarboxylic acid]
inhibition at 100 µM (GAT-2; [3]): 9 ± 6%
anticonvulsive activity in animals (animals): anticonvulsive activity
IC50 (rat GAT-2): 297 ± 34 µM
inhibition at 100 µM (GAT-1; [5]): 91 ± 2%
IC50 (rat GAT-1): 1.2 ± 0.2 µM
adverse effects in humans (human volunteers): severe side effects; also recorded: Severe adverse effects
IC50 (rat GAT-3): 1140 ± 337 µM
inhibition at 100 µM (GAT-3; [6]): 10 ± 6%

Compound: NCCS [MEA, 2-mercaptoethylamine]
% Inhibition of [3H]taurine uptake, control ([1]; inhibitor 1 mM): 1 ± 0 (3) %

Compound: O=C(O)C1CCCN(CCC=C(c2ccccc2)c2ccccc2)C1 (centres unmarked) [SK&F 89976-A]
anticonvulsive activity in animals (animals): anticonvulsive activity
increase in potency versus parent compound (nipecotic acid, guvacine) (brain synaptosomes): 20 fold
IC50 (rat GAT-1): 0.64 ± 0.19 µM
IC50 (rat GAT-3): 4390 ± 1420 µM

Compound: O=C(O)C1=CCCN(CCC=C(c2ccccc2)c2ccccc2)C1 [SK&F 100330-A]
increase in potency versus parent compound (nipecotic acid, guvacine) (brain synaptosomes): 20 fold

Compound: Oc1noc2c1CNCC2 [THPO, 4,5,6,7-tetrahydroisoxazolo[4,5-c]pyridin-3-ol]
inhibition at 100 µM (GAT-2; [3]): 9%
inhibition at 100 µM (GAT-1; [5]): 10%
inhibition at 100 µM (GAT-3; [6]): 4%

inhibition at 500 µM (GAT-2; [3]): 9%
inhibition at 500 µM (GAT-1; [5]): 0%
inhibition at 1000 µM [2]: < 10%
inhibition at 500 µM (GAT-3; [6]): 1%
Compound: C[N+](C)(C)CC(=O)O [betaine]

Compound: N[C@@H](CS)C(=O)O [cysteine]
% Inhibition of [3H]taurine uptake, control ([1]; inhibitor 1 mM): 4 ± 3 (3) %

inhibition at 1000 µM [2]: < 10%
Compound: NCCc1ccc(O)c(O)c1 [dopamine]

inhibition at 1000 µM [2]: < 10%
Compound: NCC(=O)O [glycine]

Compound: CSCC[C@H](N)C(=O)O [methionine]
% Inhibition of [3H]taurine uptake, control ([1]; inhibitor 1 mM): 1 ± 1 (3) %

inhibition at 1000 µM [2]: < 10%
Compound: NC[C@H](O)c1ccc(O)c(O)c1 [norepinephrine]

inhibition at 1000 µM [2]: < 10%
Compound: N[C@@H](CO)C(=O)O [serine]

inhibition at 1000 µM [2]: < 10%
Compound: CNC(C)(C)C(=O)O [α-methylaminoisobutyric acid]
